# Where two headings read alike, the source gives them in different places. Marks after values point to notes of the source that are not given here.
# What was measured:
# Colo205 = assay: Cell survival assay (SRB), Colo205; type: cell-based; settings: Homo sapiens, COLO 205, 72 h
# Description: (§1) 2.2. Cell Survival Assay: Standard Pharmacological Test Procedure. […] Compounds are incubated with cells for 3 days.
# KB-PTX-15+099 = assay: Cell survival assay, KB-PTX-15+099 (paclitaxel-resistant, non-MDR); type: cell-based, human; settings: for IC50: Homo sapiens
# HT-29 = assay: Cell survival assay (SRB), HT-29; type: cell-based; settings: Homo sapiens
# Description: as §1
# [1] = tested on: KB-PTX-15+099 tumor xenografts; assay: Growth of tumors in nude mice, KB-PTX-15+099 xenograft; settings: days 1,8,15
# A549 = assay: Cell survival assay (SRB), A549; type: cell-based; settings: Homo sapiens
# Excerpt: Cells lines with previously known mechanisms of resistance. […] Res. 8: 207-218,1996); KB-3-1 (parental derived from an epidermoid carcinoma), KB-8.5, KB-V1 (Akiyama S-I, Fojo A, Hanover J A, Pastan I, Gottesman M M. Isolation and genetic characterization of human KB cell lines resistant to multiple drugs. Somatic Cell Mol. Gen., 11: 117-126,1985; Shen D-W, Cardarelli C, Hwang J, Cornwell M, Richert N, Ishii S, Pastan I, Gottesman MM. […] J. Biol. Chem., 261: 7762-7770, 1986); and HL-60 (parental derived from human leukemia) and HL60/AR (McGrath T., Center M. S. Adriamycin resistance in HL60 cells in the absence of detectable P-glycoprotein. Biochem. Res. Commun., 145:1171-1176,1987); A549 and A549.EpoB40 (He L., Yang C.-P.H., Horwitz S. B. Mutations in p-tubulin map to domains involved in regulation of microtubule stability in epothilone-resistant cell lines. Molecular Cancer Therapeutics. 1: 3-10, 2001). HCT-15 human colon carcinoma and DLD-1 human colon carcinoma are obtained from American Tissue Culture Collection. The MX-1W carcinoma is a Wyeth variant orginally obtained as MX-1 breast carcinoma from the National Cancer Institute. Cell lines selected for resistance to Representative Example 129. […]
# 2.2. […] Absorbance is read on a Victor V multi-label plate reader (Perkin Elmer, Gaithersburg, Md.).
# 1A9 = assay: Cell survival assay (SRB), 1A9; type: cell-based; settings: Homo sapiens
# Description: as §1
# A431 = assay: Cell survival assay (SRB), A431; type: cell-based; settings: Homo sapiens, A-431, 72 h
# Description: as §1
# KM20 = assay: Cell survival assay (SRB), KM20; type: cell-based; settings: 72 h
# Description: as §1
# S1 = assay: Cell survival assay (SRB), S1; type: cell-based; settings: Homo sapiens
# Excerpt: (§2) Cells lines with previously known mechanisms of resistance. […] Res. 8: 207-218,1996); KB-3-1 (parental derived from an epidermoid carcinoma), KB-8.5, KB-V1 (Akiyama S-I, Fojo A, Hanover J A, Pastan I, Gottesman M M. Isolation and genetic characterization of human KB cell lines resistant to multiple drugs. Somatic Cell Mol. Gen., 11: 117-126,1985; Shen D-W, Cardarelli C, Hwang J, Cornwell M, Richert N, Ishii S, Pastan I, Gottesman MM. […] J. Biol. Chem., 261: 7762-7770, 1986); and HL-60 (parental derived from human leukemia) and HL60/AR (McGrath T., Center M. S. Adriamycin resistance in HL60 cells in the absence of detectable P-glycoprotein. Biochem. Res. Commun., 145:1171-1176,1987); A549 and A549.EpoB40 (He L., Yang C.-P.H., Horwitz S. B. Mutations in p-tubulin map to domains involved in regulation of microtubule stability in epothilone-resistant cell lines. Molecular Cancer Therapeutics. 1: 3-10, 2001). HCT-15 human colon carcinoma and DLD-1 human colon carcinoma are obtained from American Tissue Culture Collection. The MX-1W carcinoma is a Wyeth variant orginally obtained as MX-1 breast carcinoma from the National Cancer Institute. Cell lines selected for resistance to Representative Example 129. KB-3-1 cells are selected for resistance to Example 129 by chronically exposing cells to increasing concentrations of Example 129.
# (§3) 2.2. Cell Survival Assay: Standard Pharmacological Test Procedure. The concentration of candidate inhibitor required to inhibit 50% of cell growth (IC50) is done according to previously reported methods. […] Compounds are serially diluted into media as 2× stocks and 100 μl added to cells in duplicate. Compounds are incubated with cells for 3 days. At the end of the incubation period the sulforhodamine B (SRB) assay, which measures protein content as an assessment of cell survival, is performed as described previously (Skehan P, Storeng R, Scudiero D, Monks A, McMahon J, Vistica D, Warren J T, Bokesch H, Kenney S, Boyd MR. New calorimetric cytotoxicity assay for anticancer-drug screening. J Natl Cancer Inst 1990 Jul 4;82(13):1107-12) with some modification as follows. For KB-3-1 cells with 20% FCS, media is gently decanted and replaced with 200 μl of serum-free media mixed with cold 50% TCA for a final concentration of 10% TCA. The plates are incubated for 1 hr at 4° C., followed by washing 5 times in cold distilled water, then air dried overnight. The fixed cells are stained for 10 min with 80 μl of 0.04% SRB solution prepared in 1% glacial acetic acid. Stain is discarded and plates washed 5 times in 1% glacial acetic acid, then air-dried until completely dry. Stained cell product is dissolved in 150 μl of 10 mM Trizma Base and placed on a shaker for 20 minutes until fully dissolved. Absorbance is read on a Victor V multi-label plate reader (Perkin Elmer, Gaithersburg, Md.).
# HCT-15 = assay: Cell survival assay (SRB), HCT-15; type: cell-based; settings: Homo sapiens, HCT-15, 72 h, 3 days
# Excerpt: as §2, §3
# S1-M1-3.2 (MXR) = assay: Cell survival assay, S1-M1-3.2 (MXR); type: cell-based, human; settings: for IC50: Homo sapiens, read-out: S1-M1-3.2 (MXR) IC50, nM (N)
# Excerpt: as §2, §3
# J. Cell Science,113: 2011-2021, 2000). It was unknown whether the hemiasterlin family of peptides interact with these drug pumps.
# [2] = tested on: Human Melanoma Carcinoma Lox; settings: for % T/C on day 7 / % T/C on day 12: Lox, days 1,5,9; for Activity in nude mice animal model (% T/C @ MTD on days 11-15) LOX: staged LOX xenograft, at MTD ('<': MTD not achieved); for inhibition of growth of Lox melanoma xenografts: day 14, P<0.01
# Moser = assay: Cell survival assay (SRB), Moser; type: cell-based; settings: 72 h
# Description: as §1
# [3] = LOX xenograft model, IV days 1, 5 and 9
smiles,measurement,setting,value
"CC(=O)O[C@H]1C(=O)[C@@]2(C)[C@H]([C@H](OC(=O)c3ccccc3)[C@]3(O)C[C@H](OC(=O)[C@H](O)[C@@H](NC(=O)c4ccccc4)c4ccccc4)C(C)=C1C3(C)C)[C@]1(OC(C)=O)CO[C@@H]1C[C@@H]2O [paclitaxel, reference compound]",IC50,"Colo205; Colo205, colon, 3 days, SRB staining, read-out: IC50",6.9 ± 2.3 nM
same,IC50,"KB-PTX-15+099; KB-PTX-15+099, Table 6, read-out: KB-PTX-15+099 IC50",57.8 ± 9.6 nM
same,resistance of KB-PTX-15+099 cells,KB-PTX-15+099; vs KB-3-1,21 fold
same,IC50,"HT-29; 72 h, HT-29, colon, 3 days, SRB staining, read-out: IC50",6.1 nM
same,% T/C on day 6,[1]; paclitaxel 60 mg/kg IV,103%
same,% T/C on day 9,[1]; paclitaxel 60 mg/kg IV,93%
same,% T/C on day 13,[1]; paclitaxel 60 mg/kg IV,89%
same,% T/C on day 16,[1]; paclitaxel 60 mg/kg IV,87%
same,% T/C on day 20,[1]; paclitaxel 60 mg/kg IV,90%
same,IC50,"A549; 72 h, A549, NSCLC, 3 days, SRB staining, read-out: IC50",8.8 ± 3.6 nM
same,IC50,"1A9; 72 h, 1A9, ovarian, 3 days, SRB staining, read-out: IC50",5.1 ± 0.9 nM
same,IC50,"A431; A431, squamous, 3 days, SRB staining, read-out: IC50",7.6 nM
same,IC50,"KM20; KM20, colon, 3 days, SRB staining, read-out: IC50",8.9 ± 1.9 nM
same,IC50,"S1; 72 h, S1, colon, 3 days, SRB staining, read-out: IC50",92 ± 100 nM
same,IC50,"S1; S1 parental, Table 5, read-out: S1 IC50, nM (N)",92 ± 100 nM
same,IC50,"HCT-15; HCT-15, colon, SRB staining, read-out: IC50",438 ± 248 nM
same,IC50,"HCT-15; HCT-15, SRB, + 5.0 uM MDR-1 inhibitor (heptanenitrile of Table 2), read-out: IC50 + 5.0 uM MDR-1 inhibitor",5 nM
same,IC50,"HCT-15; HCT-15, SRB, vehicle control (DMSO), no MDR-1 inhibitor, read-out: IC50",479 nM
same,IC50,"S1-M1-3.2 (MXR); S1-M1-3.2, MXR over-expression, Table 5",108 ± 88 nM
same,% T/C on day 7,[2]; paclitaxel 60 mg/kg IV,16** %
same,% T/C on day 12,[2]; paclitaxel 60 mg/kg IV,4** %
same,Activity in nude mice animal model (% T/C @ MTD on days 11-15) LOX,[2],4%
same,IC50,"Moser; Moser, colon, 3 days, SRB staining, read-out: IC50",1590 ± 1990 nM
"CN[C@H](C(=O)N[C@H](C(=O)N(C)[C@H](/C=C(\C)C(=O)O)C(C)C)C(C)(C)C)C(C)(C)c1ccccc1 [Example 129, N,β,β-trimethyl-L-phenylalanyl-N^1-[(1S,2E)-3-carboxy-1-isopropylbut-2-enyl]-N^1,3-dimethyl-L-valinamide]",IC50,Colo205,1.5 ± 0.6 nM
same,IC50,KB-PTX-15+099; read-out: KB-PTX-15+099 IC50 (nM),0.182 ± 0.028 nM
same,Average Relative Resistance (RR),"KB-PTX-15+099; IC50 KB-PTX-15+099 / IC50 KB-3-1, less than 1 = increased sensitivity",(0.30)
same,increased sensitivity of KB-PTX-15+099 cells,KB-PTX-15+099; vs KB-3-1,3.4 fold
same,IC50,"HT-29; HT-29, 72 h",1.6 nM
same,% T/C on day 6,[1]; Example 129 1.25 mg/kg IV,32** %
same,% T/C on day 9,[1]; Example 129 1.25 mg/kg IV,19** %
same,% T/C on day 13,[1]; Example 129 1.25 mg/kg IV,9** %
same,% T/C on day 16,[1]; Example 129 1.25 mg/kg IV,10** %
same,% T/C on day 20,[1]; Example 129 1.25 mg/kg IV,7** %
same,IC50,"A549; A549, 72 h",1.1 ± 0.5 nM
same,IC50,"1A9; 1A9, 72 h",0.56 ± 0.09 nM
same,IC50,A431,2.4 ± 0.4 nM
same,IC50,KM20,1.8 ± 0.6 nM
same,IC50,S1; 72 h,3.7 ± 2 nM
same,IC50,"S1; read-out: S1 IC50, nM (N)",3.7 ± 2 nM
same,IC50,"HCT-15; HCT-15, colon, SRB staining",4.2 ± 2.5 nM
same,IC50,"HCT-15; HCT-15, SRB, vehicle control (DMSO), no MDR-1 inhibitor",2.2 nM
same,IC50,"HCT-15; read-out: IC50 + 5.0 uM MDR-1 inhibitor, HCT-15, SRB, + 5.0 uM MDR-1 inhibitor (heptanenitrile of Table 2)",0.5 nM
same,IC50,S1-M1-3.2 (MXR),4.8 ± 2.1 nM
same,"RR, relative resistance",S1-M1-3.2 (MXR); IC50 S1-M1-3.2 / IC50 S1,1.3
same,inhibition of growth of Lox melanoma xenografts,"[2]; 2 mg/kg oral gavage days 1,5,9",63%
same,inhibition of growth of Lox melanoma xenografts,"[2]; 3 mg/kg oral gavage days 1,5,9",97%
same,weight loss,"[2]; 2 and 3 mg/kg oral gavage days 1,5,9",less than 10%
same,growth inhibition of melanoma Lox tumors,"[2]; IV in saline, days 1, 5, 9 post-staging, 0.5-1 mg/kg, tumors 1-2 gram",> 95%
same,maximum effective dose,[2]; [3],~1.6 mg/kg
same,minimum effective dose,[2]; [3],approximately 200 μg/kg
same,% T/C on day 7,[2]; Example 129 1.6 mg/kg IV,12** %
same,% T/C on day 12,[2]; Example 129 1.6 mg/kg IV,2** %
same,Activity in nude mice animal model (% T/C @ MTD on days 11-15) LOX,[2],2.5%
same,IC50,Moser,5.3 ± 4.1 nM

# Reference: patent US20040121965A1, “Method of treating resistant tumors” (Wyeth Holdings Corporation, priority 2002, published 2004)
